Measured values taken from patent publication US20050042747A1, “Hivgp120-induced bob/gpr15 activation” (priority 2001, published 2005).

Tests used:
Format in all cases: cell-based, human
[1] = test system: microtubules in HT-29 cells; test: Microtubule staining (acetylated tubulin) in HT-29 cells; conditions: one hour after gp120 treatment
Description: To examine the microtubules, HT-29 cells were treated with 10 nM gp120CM235 or 50 pM gp120IIIB, then fixed one hour later in 4 g/100 ml paraformaldehyde PBS, then stained with mouse anti acetylated tubulin (5 μg/ml, Sigma) by a method similar to that given above. Some cells were pretreated with 50 μg/ml antiBob37 overnight, 1 μg/ml pertussis toxin overnight, or 4.6 μg/ml U73122 for one hour before the gp120 was added. Untreated cells were also stained.
Similarly treated undifferentiated HT-29 cells (except that Fluo-4 was not added) were fixed in paraformaldehyde phosphate buffered saline one hour after gp120 treatment.

[2] = test system: peripheral blood mononuclear cells; test: gp120-induced calcium flux in peripheral blood mononuclear cells
Description: Normal human peripheral blood mononuclear cells were isolated by Ficoll gradient centrifugation, and loaded with the calcium sensitive dye Fluo-4. HIV gp120IIIB induced strong calcium fluxes in the range of 7 nM to 50 pM, and there was a weaker signal at 5 pM.
Experiments corresponding to those with HT-29 cells were done with peripheral blood mononuclear cells. These were isolated from the blood of a healthy, HIV-uninfected person by a Ficoll-Hypaque techique (Histopaque, Sigma), then loaded with Fluo-4 by a technique nearly identical to that used for HT-29 cells, except that Hank's buffer was used rather than Locke's, and the cells were centrifuged (2,000 g for 10 minutes) just before calcium flux measurements to improve adherence. Gp120-induced calcium fluxes were documented with as little as 5 pM gp120IIIB.

HT-29 cells = test: Calcium signaling in HT-29 cells (Fluo 4, confocal microscope)
Description: HT-29 cells (from ATCC) were grown in DMEM-F12 with 10% bovine calf serum, and were used 24-48 hours after plating. The Ghost (3) cells were obtained from the AIDS Research and Reference Reagent Program, and were grown DMEM with 10% bovine calf serum supplemented with 500 μg/ml G418, 100 μg/ml hygromycin, and 1 μg/ml puromycin.^27 These cells were used 24 to 96 hours after plating.
Calcium studies were done on HT-29 cells and Ghost (3) cells loaded with Fluo 4. The cells were placed in Locke's buffer containing 5 μg/ml Fluo 4 AM ester (Molecular Probes) for 20 to 30 minutes, then in Locke's buffer for an additional 30 minutes before testing. Various concentrations of gp120IIIB (X4 trophic), gp120CM235 (R5 trophic), gp120mN (X4 trophic), gp12093TH975 (nonsyncytium-inducing primary isolate from an asymptomatic subject, trophism undetermined but likely R5), and gp120SF2 (X4R5 trophic), ranging from 10 nM to less than 1 pM, were added in Locke's buffer.^6 The gp120 proteins were obtained from the AIDS Research Reagent Referral Program. Some HT-29 cells were given one of the following pretreatments: 50 μg/ml anti-Bob37 overnight, 1 μg/ml pertussis toxin overnight, or 4.6 μg/ml U73122 for one hour. With the HT-29 cells only, similar tests were also performed with SDF-1, MIP-1α, MIP-1β, and RANTES rather than gp120. The cells were visualized every 4 seconds in a confocal microscope, using 488 nm argon laser excitation and detection filters appropriate for fluorescein-like dyes.
For the first two or three days after plating, gp120 induces an immediate (within 4 seconds) calcium flux in undifferentiated HT-29 cells. The cells had previously been loaded with Fluo-4 AM ester (Molecular Probes, Eugene Oreg.) 5 micrograms/ml in the presence of Pleuronic F-127 0.02% in Locke's buffer for 30 minutes, then incubated at room temperature for an additional 30 minutes. Gp120IIIB was added while the cells were on an inverted confocal microscope using a 488 nm argon laser, with detection filters suitable for fluorescein-like dyes. […]

Substance: gp120IIIB: HIV-1 envelope surface protein gp120 of strain IIIB (X4 trophic), from the AIDS Research Reagent Referral Program
- effect on acetylated tubulin-staining microtubules [1]: marked loss of microtubules
- cells substantially brighter after treatment (increase in intracellular calcium) ([2]; 50 picomolar, 4 seconds after treatment, Fluo-4): Approximately 30%
- lowest gp120IIIB concentration giving calcium flux ([2]; freshly isolated cells): 5 pM
- calcium signaling in HT-29 cells, in words (HT-29 cells): induced an immediate calcium signal
- minimal concentration causing calcium signaling (HT-29 cells; undifferentiated HT-29 cells, serial dilution): 1 pM
